According to ChEMBL document CHEMBL1137979, “Nonpeptidic, noncovalent inhibitors of the cysteine protease cathepsin S” (J Med Chem, 2004):

test system: not listed separately; test: Inhibitory concentration against human Li processing; type: functional

IC50 [nM]	SMILES
880	N#Cc1ccccc1N1CCN(CC(Cn2nc(-c3ccc(I)cc3)c3c2CCN(C(N)=O)C3)OC(N)=O)CC1 (configuration not stated)

target: Cathepsin S (Homo sapiens, UniProt P25774); test: Inhibitory concentration against human cysteine protease cathepsin S
Sequence (P25774 whole entry): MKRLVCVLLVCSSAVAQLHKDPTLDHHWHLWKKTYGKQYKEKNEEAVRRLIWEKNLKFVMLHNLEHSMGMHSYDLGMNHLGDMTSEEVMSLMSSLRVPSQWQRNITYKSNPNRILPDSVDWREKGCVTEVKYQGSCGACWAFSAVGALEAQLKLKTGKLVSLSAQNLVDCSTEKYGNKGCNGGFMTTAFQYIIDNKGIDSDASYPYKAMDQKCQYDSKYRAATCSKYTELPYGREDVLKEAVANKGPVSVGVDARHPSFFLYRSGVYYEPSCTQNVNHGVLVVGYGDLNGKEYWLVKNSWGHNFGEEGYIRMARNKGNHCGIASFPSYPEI

SMILES	IC50 [nM]
COc1ccccc1N1CCN(CCCCn2nc(-c3ccc(Cl)cc3)c3c2CCN(C(C)=O)C3)CC1	9500
CC(=O)N1CCc2c(c(-c3ccc(Cl)cc3)nn2CC(O)CN2CCN(C(c3ccc(F)cc3)c3ccc(F)cc3)CC2)C1 (configuration not stated)	1000
Cc1ccccc1N1CCN(CC(O)Cn2nc(-c3ccc(I)cc3)c3c2CCN(C(N)=O)C3)CC1 (configuration not stated)	14000

More lines, in order of falling IC50, values ahead:

IC50 [nM]	SMILES
1000	CC(=O)N1CCc2c(c(-c3ccc(Cl)cc3)nn2CC(O)CN2CCN(c3ccccc3Cl)CC2)C1 (configuration not stated)
600	COc1ccccc1N1CCN(CC(O)Cn2nc(-c3ccc(I)cc3)c3c2CCN(C(C)=O)C3)CC1 (configuration not stated)
20	N#Cc1ccccc1N1CCN(CC(Cn2nc(-c3ccc(I)cc3)c3c2CCN(C(N)=O)C3)OC(N)=O)CC1 (configuration not stated)
